{"source": "paper PMC10709440", "about": "“High-throughput ligand profile characterization in novel cell lines expressing seven heterologous insect olfactory receptors for the detection of volatile plant biomarkers” (Scientific Reports, 2023)", "key": {"[1]": {"test_system": "OR47a", "conditions": "similar system to Xenopus oocytes, cited from earlier work"}, "[2]": {"test_system": "OR13a", "conditions": "insect cell line stably expressing OR13a; read-out: EC50 of concentration-dependent Ca2+ signals; cited from earlier work"}, "[3]": {"test_system": "OR13a", "conditions": "Bactrocera dorsalis OR13a in HEK293 cells; read-out: EC50 in fluorescent measurements; cited from earlier work"}, "[4]": {"test_system": "OR13a", "conditions": "Bactrocera dorsalis OR13a; read-out: EC50 in electrophysiology; cited from earlier work"}, "[5]": {"biological_target": "OR85b receptor", "conditions": "cited from earlier work"}, "[6]": {"biological_target": "T1, Drosophila OR47a (Drosophila melanogaster, UniProt P81921)", "T1 construct": "expressed in transfected cells", "T1 sequence (P81921 1-385)": "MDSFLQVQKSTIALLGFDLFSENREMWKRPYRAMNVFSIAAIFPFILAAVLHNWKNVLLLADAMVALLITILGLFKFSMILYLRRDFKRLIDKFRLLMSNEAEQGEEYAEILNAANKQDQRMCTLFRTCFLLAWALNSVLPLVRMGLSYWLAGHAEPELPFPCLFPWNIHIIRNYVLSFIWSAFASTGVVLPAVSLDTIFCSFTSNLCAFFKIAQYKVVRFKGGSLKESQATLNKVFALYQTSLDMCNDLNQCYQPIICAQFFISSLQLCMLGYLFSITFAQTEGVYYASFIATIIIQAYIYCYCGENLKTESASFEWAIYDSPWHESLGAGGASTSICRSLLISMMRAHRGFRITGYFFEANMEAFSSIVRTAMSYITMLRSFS", "T1 sequence (Q9VNB5 1-486 partner)": "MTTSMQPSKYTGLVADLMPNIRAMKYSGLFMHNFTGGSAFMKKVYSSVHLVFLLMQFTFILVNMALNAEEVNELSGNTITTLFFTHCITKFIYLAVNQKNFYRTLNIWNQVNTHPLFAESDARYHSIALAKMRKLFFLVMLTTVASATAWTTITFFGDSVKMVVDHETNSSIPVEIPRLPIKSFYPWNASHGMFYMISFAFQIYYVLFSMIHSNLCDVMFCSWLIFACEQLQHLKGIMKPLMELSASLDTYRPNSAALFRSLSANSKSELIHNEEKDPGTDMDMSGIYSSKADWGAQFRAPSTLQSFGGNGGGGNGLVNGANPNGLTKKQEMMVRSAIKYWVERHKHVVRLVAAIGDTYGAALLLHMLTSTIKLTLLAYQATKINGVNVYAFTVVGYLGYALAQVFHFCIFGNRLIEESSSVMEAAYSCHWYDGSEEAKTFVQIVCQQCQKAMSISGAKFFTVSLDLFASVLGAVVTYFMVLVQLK", "assay": "cell-based", "design": "GCaMP6 calcium fluorescence in stable HEK293 OR+ORCO lines; peak dF normalised to 50 uM VUAA1 (=1)", "conditions": "HEK293; relative to 50 uM VUAA1 response; below 0.05 set to 0; read-out: % activation", "outline": "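Responses to VOCs (1, 10, 100 µM final) were read as fluorescence rise over baseline for 30 s in cells expressing the OR after 48–72 h doxycycline induction, in pH 7.3 buffer. ΔF values were divided by the same line's mean ΔF to 50 µM VUAA1 on that plate. Data are means of replicate days.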"}}, "note": "Where two headings read alike, the source gives them in different places."}
{"smiles": "CCCCCOC(C)=O", "note": "[pentyl acetate]", "values": [{"measurement": "EC50", "setting": "[1]; ref 34, read-out: calculated EC50", "value": "30.8 ± 1.28", "unit": "µM"}, {"measurement": "EC50", "setting": "[1]; ref 39, read-out: calculated EC50", "value": "10.7 ± 2", "unit": "µM"}]}
{"smiles": "C=CC(O)CCCCC", "note": "(stereo not shown) [1-octen-3-ol]", "values": [{"measurement": "EC50", "setting": "[2]", "value": 4.33, "unit": "µM"}, {"measurement": "EC50", "setting": "[3]", "value": 11.3, "unit": "µM"}, {"measurement": "EC50", "setting": "[4]", "value": 1.27, "unit": "µM"}]}
{"smiles": "CCCCCC(C)=O", "note": "[2-heptanone]", "values": [{"measurement": "EC50", "setting": "[5]; OR85b in Xenopus oocytes, Nichols and Luetje, read-out: EC50", "value": "70 ± 20", "unit": "µM"}, {"measurement": "EC50", "setting": "[5]; OR85b, Misawa et al., read-out: average EC50", "value": 45.6, "unit": "µM"}]}
{"smiles": "CC/C=C/CCO", "note": "[e3-hexenol]", "values": [{"measurement": "activity at 1 µM", "setting": "[6]", "value": 6.26, "unit": "%"}, {"measurement": "activity at 10 µM", "setting": "[6]", "value": 0, "unit": "%"}, {"measurement": "activity at 100 µM", "setting": "[6]", "value": 14, "unit": "%"}]}
